The source of these data is patent publication US20040157892A1, “Pesticidal fluoroethyl pyrazoles” (CROMPTON CO./Cie, priority 2003, published 2004).

What all share (assay type): in vivo
In one experiment the test system is Tetranychus urticae Eggs. Put plainly: mite ovicide (MIOV) bioassay. The conditions noted are these: 100 ppm, contact on bean leaf, egg hatch evaluated nine days later. How it is done:
(§1) For each compound tested, a stock solution of 3000 ppm was prepared by diluting 0.008 gram of each compound into 2.67 mL of acetone and further diluting with water to make the final concentrations used for the various screens, as follows:
In the mite ovicide (MIOV) bioassay, approximately 30 mite eggs on cowpea foliage were sprayed with a 100 ppm solution and egg hatch was evaluated nine days later.
(§2) Since only a single replicate was used for the DBM and SCR screens, confirmation of mortality in an additional evaluation with three larvae at the 100 ppm rate was required to substantiate the initial observation of activity.

In experiment [1] the test system is Tetranychus urticae Motiles. In words: mite contact (MIC) bioassay. To be noted: 300 ppm, contact on bean leaf, evaluated five days later. The procedure:
as §1
In the mite contact (MIC) bioassay, approximately 20 motile mites confined on a cowpea leaf were sprayed with a 300 ppm concentration and evaluated five days later.
as §2

The test system of experiment [2] is Plutella xylostella Larva. Put plainly: diamondback moth (DBM) bioassay. To be noted: 100 ppm, residual on diet, evaluated five days later, confirmed with three larvae. The procedure:
as §1
In the diamondback moth (DBM) bioassay, a single larva was exposed to a diet with a surface that had been coated with a 100 ppm solution, and evaluated five days later.
as §2

Regarding `FCCn1cc(-c2ccc(Cl)s2)cn1` [Compound 6, 1-(2-fluoroethyl)-4-(5-chloro-2-thienyl)pyrazole], the “Pesticidal Activity MIOV (control)” value in the experiment on Tetranychus urticae Eggs was found to be 100%. The “Pesticidal Activity MIC (control)” value in experiment [1] amounted to 100%. Besides, the “Pesticidal Activity DBM (control)” value in experiment [2] is reported as 100%.
Regarding `CCOC(=O)c1sc(-c2cnn(CCF)c2)nc1C(F)(F)F` [Compound 7, Ethyl 2-[1-(2-fluoroethyl)-4-pyrazolyl]-4-trifluoromethyl-5-thiazolecarboxylate], the “Pesticidal Activity MIOV (control)” value with Tetranychus urticae Eggs worked out at 100%. The “Pesticidal Activity MIC (control)” value in experiment [1] stood at 100%.
As to `FCCn1cc(-c2cccc(Cl)n2)cn1` [Compound 8, 1-(2-fluoroethyl)-4-(6-chloro-2-pyridyl)pyrazole], the “Pesticidal Activity MIOV (control)” value with Tetranychus urticae Eggs was 100%. Also, in experiment [1], the “Pesticidal Activity MIC (control)” value is on record as 100%.
Regarding `FCCn1cc(C#Cc2ccc(Cl)cc2)cn1` [Compound 9, 1-(2-fluoroethyl)-4-[(4-chlorophenyl)ethynyl]pyrazole], in the experiment with Tetranychus urticae Eggs, the “Pesticidal Activity MIOV (control)” value is 100%. Further, in experiment [1], the “Pesticidal Activity MIC (control)” value was 100%.
For the compound `FCCn1cc(C#Cc2cccnc2)cn1` [Compound 10], the “Pesticidal Activity MIOV (control)” value with Tetranychus urticae Eggs is 100%. For the same compound, the “Pesticidal Activity MIC (control)” value in experiment [1] was 100%.
Regarding “Isopropyl 1-(2-fluoroethyl)-3(or 5)-nitro-1H-pyrazole-5 (or 3)-carboxylate [Compound 1]”, the “Pesticidal Activity MIC (control)” value in experiment [1] amounted to 100%. Also, the “Pesticidal Activity DBM (control)” value in experiment [2] is 100%.
